Data: US8574563B2 (Bristol-Myers Squibb Company, priority 2006, dated 2013)
pEC50: −log10 of the molar value. Where two headings read alike, the source gives them in different places.

System: HCV 1b-377-neo replicon cells
Experiment: HCV replicon assay, HCV 1b-377-neo replicon cells (1b FRET)
Assay type: cell-based, Hepatitis C virus genotype 1b
Conditions: HCV 1b-377-neo replicon cells, HCV 1b genotype; for pEC50: read-out: EC50 range against HCV 1b (Table 2, Range)
Procedure, shortened: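 Compounds were tested in genotype 1b subgenomic replicon cells carrying a neomycin marker, alongside a matched replicon line with an NS5A Y2065H substitution that confers resistance to a reference NS5A inhibitor.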

`COC(=O)N[C@@H](C(=O)N1CCC[C@H]1c1ncc(-c2ccc(-c3ccc(-c4cnc([C@@H]5CCCN5C(=O)[C@@H](c5ccccc5)N5CCCCC5)[nH]4)cc3)cc2)[nH]1)c1ccccc1` [Example 84-1, methyl ((1R)-2-oxo-1-phenyl-2-((2S)-2-(5-(4′-(2-((2S)-1-((2R)-2-phenyl-2-(1-piperidinyl)acetyl)-2-pyrrolidinyl)-1H-imidazol-5-yl)-4-biphenylyl)-1H-imidazol-2-yl)-1-pyrrolidinyl)ethyl)carbamate] gave a pEC50 (Hepatitis C virus) of 9.00 to 12.00.

With `COC(=O)N[C@@H](C(=O)N1CCC[C@H]1c1ncc(-c2ccc(-c3ccc(-c4cnc([C@@H]5CCCN5C(=O)C(c5cccc(Cl)c5)N(C)C)[nH]4)cc3)cc2)[nH]1)c1ccccc1` (stereo partly drawn) [Example 84-57, methyl ((1R)-2-((2S)-2-(5-(4′-(2-((2S)-1-((3-chlorophenyl)(dimethylamino)acetyl)-2-pyrrolidinyl)-1H-imidazol-5-yl)-4-biphenylyl)-1H-imidazol-2-yl)-1-pyrrolidinyl)-2-oxo-1-phenylethyl)carbamate] the pEC50 (Hepatitis C virus) was 9.00 to 12.00.

`O=C(OCc1ccccc1)N1CCC[C@H]1c1ncc(-c2ccc(-c3ccc(-c4cnc([C@@H]5CCCN5C(=O)OCc5ccccc5)[nH]4)cc3)cc2)[nH]1` [Example 109, dibenzyl (2S,2′S)-2,2′-(4,4′-biphenyldiylbis(1H-imidazole-5,2-diyl))di(1-pyrrolidinecarboxylate)] was tested, and the pEC50 (Hepatitis C virus) was 7.00 to 9.00.

In the case of `COC(=O)N[C@H](C(=O)N1CCC[C@H]1c1ncc(-c2cnc(-c3ccc(-c4[nH]c([C@@H]5CCCN5C(=O)[C@@H](NC(=O)OC)C(C)C)nc4C(F)(F)F)cc3)nc2)[nH]1)C(C)C` [Example J48, methyl ((1S)-1-(((2S)-2-(5-(2-(4-(2-((2S)-1-((2S)-2-((methoxycarbonyl)amino)-3-methylbutanoyl)-2-pyrrolidinyl)-4-(trifluoromethyl)-1H-imidazol-5-yl)phenyl)-5-pyrimidinyl)-1H-imidazol-2-yl)-1-pyrrolidinyl)carbonyl)-2-methylpropyl)carbamate], the pEC50 (Hepatitis C virus) was 9.00 to 12.00.

`COC(=O)N[C@@H](C(=O)N1CCC[C@H]1c1ncc(-c2ccc(-c3ccc(-c4cnc([C@@H]5CCCN5C(=O)[C@H]5CCCO5)[nH]4)cc3)cc2)[nH]1)c1ccccc1Cl` [Example 107-39, methyl ((1R)-1-(2-chlorophenyl)-2-oxo-2-((2S)-2-(5-(4′-(2-((2S)-1-((2R)-tetrahydro-2-furanylcarbonyl)-2-pyrrolidinyl)-1H-imidazol-5-yl)-4-biphenylyl)-1H-imidazol-2-yl)-1-pyrrolidinyl)ethyl) carbamate] gave a pEC50 (Hepatitis C virus) of 9.00 to 12.00.

`COC(=O)N[C@@H](C(=O)N1CCC[C@H]1c1ncc(-c2ccc(-c3ccc(-c4cnc([C@@H]5CCCN5C(=O)[C@H](NC(=O)OC)c5ccccc5)[nH]4)cc3C)c(C)c2)[nH]1)c1ccccc1` [Example 122] gave a pEC50 (Hepatitis C virus) of 9.00 to 12.00.

In the case of `C[C@@H](O)C(=O)N1CCC[C@H]1c1ncc(-c2ccc(-c3ccc(-c4cnc([C@@H]5CCCN5C(=O)[C@@H](C)O)[nH]4)cc3)cc2)[nH]1` [Example 15, (2R,2′R)-1,1′-(4,4′-biphesnyldiylbis(1H-imidazole-5,2-diyl(2S)-2,1-pyrrolidinediyl))bis(1-oxo-2-propanol)], the pEC50 was 7.00 to 9.00.

`COC(=O)N[C@@H](C(=O)N1CCC[C@H]1c1ncc(-c2ccc(-c3ccc(-c4cnc([C@@H]5CCCN5C(=O)[C@@H]5Cc6ccc(O)cc6CN5)[nH]4)cc3)cc2)[nH]1)c1ccccc1` [Example 84-20, methyl ((1R)-2-((2S)-2-(5-(4′-(2-((2S)-1-(((3S)-7-hydroxy-1,2,3,4-tetrahydro-3-isoquinolinyl)carbonyl)-2-pyrrolidinyl)-1H-imidazol-5-yl)-4-biphenylyl)-1H-imidazol-2-yl)-1-pyrrolidinyl)-2-oxo-1-phenylethyl)carbamate] gave a pEC50 (Hepatitis C virus) of 7.00 to 9.00.

`CC(C)[C@H](NC(=O)C1CC1)C(=O)N1[C@@H]2C[C@@H]2C[C@H]1c1ncc(-c2ccc(-c3ccc(-c4cnc([C@@H]5C[C@H]6C[C@H]6N5C(=O)[C@@H](NC(=O)C5CC5)C(C)C)[nH]4)cc3)cc2)[nH]1` [Example M141, N-((1S)-1-(((1R,3S,5R)-3-(4-(4′-(2-((1R,3S,5R)-2-((2S)-2-((cyclopropylcarbonyl)amino)-3-methylbutanoyl)-2-azabicyclo[3.1.0]hex-3-yl)-1H-imidazol-4-yl)-4-biphenylyl)-1H-imidazol-2-yl)-2-azabicyclo[3.1.0]hex-2-yl)carbonyl)-2-methylpropyl)cyclopropanecarbamate] showed a pEC50 (Hepatitis C virus) of 7.00 to 9.00.

`CN(C)[C@@H](C(=O)N1CCC[C@H]1c1ncc(-c2ccc(-c3cnc(-c4cnc([C@@H]5CCCN5C(=O)[C@@H](c5ccccc5)N(C)C)[nH]4)cn3)cc2)[nH]1)c1ccccc1` [Example 152j-7, (1R)-2-((2S)-2-(5-(5-(4-(2-((2S)-1-((2R)-2-(dimethylamino)-2-phenylacetyl)-2-pyrrolidinyl)-1H-imidazol-5-yl)phenyl)-2-pyrazinyl)-1H-imidazol-2-yl)-1-pyrrolidinyl)-N,N-dimethyl-2-oxo-1-phenylethanamine] showed a pEC50 (Hepatitis C virus) of 7.00 to 9.00.

For `COC(=O)N[C@@H](C(=O)N1CCC[C@H]1c1ncc(-c2ccc(-c3ccc(-c4cnc([C@@H]5CCCN5C(=O)Cc5ccccc5CN5CCCCC5)[nH]4)cc3)cc2)[nH]1)c1ccccc1` [Example 84-85, methyl ((1R)-2-oxo-1-phenyl-2-((2S)-2-(5-(4′-(2-((2S)-1-((2-(1-piperidinylmethyl)phenyl)acetyl)-2-pyrrolidinyl)-1H-imidazol-5-yl)-4-biphenylyl)-1H-imidazol-2-yl)-1-pyrrolidinyl)ethyl)carbamate], the pEC50 was 9.00 to 12.00.

`O=C(C1CC1)N1CCC[C@H]1c1ncc(-c2ccc(-c3ccc(-c4cnc([C@@H]5CCCN5C(=O)C5CC5)[nH]4)cc3)cc2)[nH]1` [Example 11, 5,5′-(4,4′-biphenyldiyl)bis(2-((2S)-1-(cyclopropylcarbonyl)-2-pyrrolidinyl)-1H-imidazole)] gave a pEC50 (Hepatitis C virus) of 7.00 to 9.00.

`COC(=O)N[C@@H](C(=O)N1CCC[C@H]1c1ncc(-c2ccc(-c3ccc(-c4cnc([C@@H]5CCCN5C(=O)[C@H](C)NC(C)=O)[nH]4)cc3)cc2)[nH]1)c1ccccc1` [Example 54, methyl ((1R)-2-((2S)-2-(5-(4′-(2-((2S)-1-(N-acetyl-L-ananyl)-2-pyrrolidinyl)-1H-imidazol-5-yl)-4-biphenylyl)-1H-imidazol-2-yl)-1-pyrrolidinyl)-2-oxo-1-phenylethyl)carbamate] showed a pEC50 of 9.00 to 12.00.

With `CCN(CC)[C@@H](C(=O)N1CCC[C@H]1c1ncc(-c2ccc(-c3ccc(-c4cnc([C@@H]5CCCN5C(=O)[C@H](C)NC(=O)OC)[nH]4)c(F)c3)cc2)[nH]1)c1ccccc1` [Example D36, methyl ((1S)-2-((2S)-2-(5-(4′-(2-((2S)-1-((2R)-2-(diethylamino)-2-phenylacetyl)-2-pyrrolidinyl)-1H-imidazol-5-yl)-3-fluoro-4-biphenylyl)-1H-imidazol-2-yl)-1-pyrrolidinyl)-1-methyl-2-oxoethyl)carbamate] the pEC50 (Hepatitis C virus) was 9.00 to 12.00.

For `COC(=O)N[C@@H](C(=O)N1CCC[C@H]1c1ncc(-c2ccc(-c3ccc(-c4cnc([C@@H]5CCCN5C(=O)Cc5ccccc5Cl)[nH]4)cc3)cc2)[nH]1)c1ccccc1` [Example 84-66, methyl ((1R)-2-((2S)-2-(5-(4′-(2-((2S)-1-((2-chlorophenyl)acetyl)-2-pyrrolidinyl)-1H-imidazol-5-yl)-4-biphenylyl)-1H-imidazol-2-yl)-1-pyrrolidinyl)-2-oxo-1-phenylethyl)carbamate], the “EC50 range against HCV 1b (Table 2, Range)” value was “C-D”.

Work on `O=C(NC1CCCC1)N[C@@H](C(=O)N1C[C@H](O)C[C@H]1c1ncc(-c2ccc(-c3ccc(-c4cnc([C@@H]5C[C@@H](O)CN5C(=O)[C@H](NC(=O)NC5CCCC5)c5ccccc5)[nH]4)cc3)cc2)[nH]1)c1ccccc1` [Example 24-15, N′,N′′′-(4,4′-biphenyldiylbis(1H-imidazole-5,2-diyl((2S,4R)-4-hydroxy-2,1-pyrrolidinediyl)((1R)-2-oxo-1-phenyl-2,1-ethanediyl)))bis(1-cyclopentylurea)] yielded a pEC50 (Hepatitis C virus) of 7.00 to 9.00.

In the case of `COC(=O)N[C@H](C(=O)N1CCC[C@H]1c1ncc(-c2ccc(-c3ccc(-c4cnc([C@@H]5CCCN5C(=O)[C@H]5CC[C@@H](NC(=O)OC)CC5)[nH]4)cc3)cc2)[nH]1)C(C)C` [cj-69, methyl ((1S)-1-(((2S)-2-(5-(4′-(2-((2S)-1-((cis-4-((methoxycarbonyl)amino)cyclohexyl)carbonyl)-2-pyrrolidinyl)-1H-imidazol-5-yl)-4-biphenylyl)-1H-imidazol-2-yl)-1-pyrrolidinyl)carbonyl)-2-methylpropyl)carbamate], the pEC50 (Hepatitis C virus) was 9.00 to 12.00.

Work on `COC(=O)N[C@H](C(=O)N1[C@H](c2ncc(-c3ccc(-c4ccc(-c5cnc([C@@H]6C[C@@H]7C[C@@H]7N6C(=O)[C@@H](NC(=O)OC)C(C)(C)O)[nH]5)cc4)cc3)[nH]2)C[C@@H]2C[C@@H]21)C(C)(C)O` [Example M125, methyl ((1S)-2-hydroxy-1-(((1S,3S,5S)-3-(5-(4′-(2-((1S,3S,5S)-2-((2S)-3-hydroxy-2-((methoxycarbonyl)amino)-3-methylbutanoyl)-2-azabicyclo[3.1.0]hex-3-yl)-1H-imidazol-5-yl)-4-biphenylyl)-1H-imidazol-2-yl)-2-azabicyclo[3.1.0]hex-2-yl)carbonyl)-2-methylpropyl)carbamate] yielded a pEC50 (Hepatitis C virus) of 7.00 to 9.00.

`COC(=O)N[C@@H](C)C(=O)N1CC(F)(F)C[C@H]1c1ncc(-c2ccc(-c3ccc(-c4cnc([C@@H]5CC(F)(F)CN5C(=O)[C@H](C)NC(=O)OC)[nH]4)cc3)cc2)[nH]1` [OL-11, methyl ((1S)-2-((2S)-2-(4-(4′-(2-((2S)-4,4-difluoro-1-(N-(methoxycarbonyl)-L-alanyl)-2-pyrrolidinyl)-1H-imidazol-4-yl)-4-biphenylyl)-1H-imidazol-2-yl)-4,4-difluoro-1-pyrrolidinyl)-1-methyl-2-oxoethyl)carbamate] showed a pEC50 (Hepatitis C virus) of 9.00 to 12.00.

In the case of `COC(=O)N[C@H](C(=O)N1CCC[C@H]1c1ncc(-c2ccc(-c3ccc(-c4cnc([C@@H]5CCCN5C(=O)[C@@H](NC(=O)OC)c5ccccc5)[nH]4)cc3)cc2)[nH]1)c1ccccc1` [Example M12, dimethyl (4,4′-biphenyldiylbis(1H-imidazole-5,2-diyl(2S)-2,1-pyrrolidinediyl((1S)-2-oxo-1-phenyl-2,1-ethanediyl)))biscarbamate], the pEC50 (Hepatitis C virus) was 7.00 to 9.00.
